Reference: US7767659B2, “Synthesis of naturally occurring ecteinascidins and related compounds” (Pharma Mar, S.A., priority 2002, dated 2010)

Legend:
A-549 = test: cells; details: Homo sapiens, A549, 48 h; for GI50: read-out: A549 GI50; for CC50: read-out: A549 LC50; for IC (TGI): read-out: A549 TGI
Summary of the method: (§1)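 Colorimetric SRB read (490 nm) on triplicate wells after 48 h at 37 °C, 5% CO2. Dose range 10 to 10^−8 μg/ml; 5×10^3 cells/well pre-attached 18 h.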

HT-29 = test: cells; details: Homo sapiens, HT-29, 48 h; for GI50: read-out: HT29 GI50; for CC50: read-out: HT29 LC50; for IC (TGI): read-out: HT29 TGI
Summary of the method: as §1

LoVo = test: cells; details: Homo sapiens, LoVo, 48 h; for GI50: read-out: LOVO GI50; for CC50: read-out: LOVO LC50; for IC (TGI): read-out: LOVO TGI
Summary of the method: as §1

HeLa-APL = test: Inhibition of cells growth by colorimetric assay (SRB); details: Homo sapiens, 48 h; for GI50: read-out: HELA-APL GI50; for CC50: read-out: HELA-APL LC50; for IC (TGI): read-out: HELA-APL TGI
Summary of the method: as §1

SK-MEL-28 = test: as above; details: Homo sapiens, SK-MEL-28, 48 h; for GI50: read-out: MEL-28 GI50; for CC50: read-out: MEL-28 LC50; for IC (TGI): read-out: MEL-28 TGI
Summary of the method: as §1

SK-BR-3 = test: as above; details: Homo sapiens, SK-BR-3, 48 h; for GI50: read-out: SK-BR3 GI50; for CC50: read-out: SK-BR3 LC50; for IC (TGI): read-out: SK-BR3 TGI
Summary of the method: as §1

K-562 = test: as above; details: Homo sapiens, K562, 48 h; for GI50: read-out: K562 GI50; for CC50: read-out: K562 LC50; for IC (TGI): read-out: K562 TGI
Summary of the method: as §1

IGROV-1 = test: as above; details: Homo sapiens, IGROV-1, 48 h; for GI50: read-out: IGROV GI50; for CC50: read-out: IGROV LC50; for IC (TGI): read-out: IGROV TGI
Summary of the method: as §1

HeLa = test: as above; details: Homo sapiens, HeLa, 48 h; for GI50: read-out: HELA GI50; for CC50: read-out: HELA LC50; for IC (TGI): read-out: HELA TGI
Summary of the method: as §1

LNCaP = test: as above; details: Homo sapiens, LNCaP, 48 h; for GI50: read-out: LNCAP GI50; for CC50: read-out: LNCAP LC50; for IC (TGI): read-out: LNCAP TGI
Summary of the method: as §1

IGROV-ET = test: as above; details: Homo sapiens, 48 h; for GI50: read-out: IGROV-ET GI50; for CC50: read-out: IGROV-ET LC50; for IC (TGI): read-out: IGROV-ET TGI
Summary of the method: as §1

PANC-1 = test: as above; details: Homo sapiens, PANC-1, 48 h; for GI50: read-out: PANC-1 GI50; for CC50: read-out: PANC-1 LC50; for IC (TGI): read-out: PANC-1 TGI
Summary of the method: as §1

DU-145 = test: as above; details: Homo sapiens, DU-145, 48 h; for GI50: read-out: DU145 GI50; for CC50: read-out: DU145 LC50; for IC (TGI): read-out: DU145 TGI
Summary of the method: as §1

LoVo-Dox = test: as above; details: Homo sapiens, 48 h; for GI50: read-out: LOVO-DOX GI50; for CC50: read-out: LOVO-DOX LC50; for IC (TGI): read-out: LOVO-DOX TGI
Summary of the method: as §1

## COc1cc2c(cc1O)CCN[C@]21CS[C@@H]2c3c(OC(=O)/C=C/c4ccccc4)c(C)c4c(c3[C@H](COC1=O)N1C2[C@@H]2N[C@@H](Cc3cc(C)c(OC)c(O)c32)[C@@H]1C#N)OCO4 (stereo partly drawn) [compound 51]
A-549
  GI50: 2.85 nM
  CC50: 542 nM
  IC (TGI): 6.59 nM
HT-29
  GI50: 5.24 nM
  CC50: 11.8 nM
  IC (TGI): 2370 nM
LoVo
  GI50: 3.93 nM
  CC50: 11800 nM
  IC (TGI): 8.86 nM
HeLa-APL
  GI50: 3.49 nM
  CC50: 10.9 nM
  IC (TGI): 6.18 nM
SK-MEL-28
  GI50: 2.71 nM
  CC50: 7.94 nM
  IC (TGI): 4.64 nM
SK-BR-3
  GI50: 5.05 nM
  CC50: 11800 nM
  IC (TGI): 344 nM
K-562
  GI50: 3.15 nM
  CC50: 653 nM
  IC (TGI): 7.75 nM
IGROV-1
  GI50: 3.35 nM
  CC50: 118000 nM
  IC (TGI): 6.45 nM
HeLa
  GI50: 3.43 nM
  CC50: 15.5 nM
  IC (TGI): 6.63 nM
LNCaP
  GI50: 2.31 nM
  CC50: 6.82 nM
  IC (TGI): 3.96 nM
IGROV-ET
  GI50: 43.6 nM
  CC50: 11800 nM
  IC (TGI): 118 nM
PANC-1
  GI50: 3.53 nM
  CC50: 520 nM
  IC (TGI): 7.73 nM
DU-145
  GI50: 5.24 nM
  CC50: 11800 nM
  IC (TGI): 16.3 nM
LoVo-Dox
  GI50: 352 nM
  CC50: 11800 nM
  IC (TGI): 11800 nM

## CCCCCCCC(=O)Oc1c(C)c2c(c3c1[C@H]1SC[C@]4(NCCc5cc(O)c(OC)cc54)C(=O)OC[C@@H]3N3C1[C@@H]1N[C@@H](Cc4cc(C)c(OC)c(O)c41)[C@@H]3C#N)OCO2 (stereo partly drawn) [compound 52]
A-549
  GI50: 8.01 nM
  CC50: 973 nM
  IC (TGI): 57.8 nM
HT-29
  GI50: 6.14 nM
  CC50: 7780 nM
  IC (TGI): 1250 nM
LoVo
  GI50: 9.17 nM
  CC50: 85.7 nM
  IC (TGI): 29.6 nM
HeLa-APL
  GI50: 7.05 nM
  CC50: 92.3 nM
  IC (TGI): 21.4 nM
SK-MEL-28
  GI50: 4.07 nM
  CC50: 52.7 nM
  IC (TGI): 15.5 nM
SK-BR-3
  GI50: 6.18 nM
  CC50: 11900 nM
  IC (TGI): 258 nM
K-562
  GI50: 4.51 nM
  CC50: 80.6 nM
  IC (TGI): 21.3 nM
IGROV-1
  GI50: 7.32 nM
  CC50: 3060 nM
  IC (TGI): 43.3 nM
HeLa
  GI50: 5.98 nM
  CC50: 1850 nM
  IC (TGI): 22.5 nM
LNCaP
  GI50: 2.39 nM
  CC50: 9.06 nM
  IC (TGI): 4.66 nM
IGROV-ET
  GI50: 39.5 nM
  CC50: 8530 nM
  IC (TGI): 119 nM
PANC-1
  GI50: 21.5 nM
  CC50: 610 nM
  IC (TGI): 62.4 nM
DU-145
  GI50: 4.92 nM
  CC50: 5140 nM
  IC (TGI): 19.3 nM
LoVo-Dox
  GI50: 273 nM
  CC50: 11900 nM
  IC (TGI): 11900 nM

## COc1cc2c(cc1O)CCN[C@]21CS[C@@H]2c3c(OC(=O)/C=C/c4ccccc4)c(C)c4c(c3[C@H](COC1=O)N1C2[C@@H]2N[C@@H](Cc3cc(C)c(OC)c(O)c32)[C@@H]1O)OCO4 (stereo partly drawn) [compound 53]
A-549
  GI50: 3.34 nM
  CC50: 2210 nM
  IC (TGI): 8.17 nM
HT-29
  GI50: 4.33 nM
  CC50: 2740 nM
  IC (TGI): 18.3 nM
LoVo
  GI50: 3.82 nM
  CC50: 2940 nM
  IC (TGI): 8.54 nM
HeLa-APL
  GI50: 2.99 nM
  CC50: 38.9 nM
  IC (TGI): 12.2 nM
SK-MEL-28
  GI50: 2.21 nM
  CC50: 7.2 nM
  IC (TGI): 4 nM
SK-BR-3
  GI50: 2.95 nM
  CC50: 1820 nM
  IC (TGI): 29.9 nM
K-562
  GI50: 1.54 nM
  CC50: 583 nM
  IC (TGI): 13 nM
IGROV-1
  GI50: 2.74 nM
  CC50: 2740 nM
  IC (TGI): 6.72 nM
HeLa
  GI50: 3.12 nM
  CC50: 83.9 nM
  IC (TGI): 7.55 nM
LNCaP
  GI50: 1.87 nM
  CC50: 8.33 nM
  IC (TGI): 3.95 nM
IGROV-ET
  GI50: 10.2 nM
  CC50: 6450 nM
  IC (TGI): 1400 nM
PANC-1
  GI50: 3.36 nM
  CC50: 1440 nM
  IC (TGI): 10.1 nM
DU-145
  GI50: 3.58 nM
  CC50: 3040 nM
  IC (TGI): 24.3 nM
LoVo-Dox
  GI50: 57.9 nM
  CC50: 5240 nM
  IC (TGI): 1450 nM

## CCCCCCCC(=O)Oc1c(C)c2c(c3c1[C@H]1SC[C@]4(NCCc5cc(O)c(OC)cc54)C(=O)OC[C@@H]3N3C1[C@@H]1N[C@@H](Cc4cc(C)c(OC)c(O)c41)[C@@H]3O)OCO2 (stereo partly drawn) [compound 54]
A-549
  GI50: 20.2 nM
  CC50: 636 nM
  IC (TGI): 66.3 nM
HT-29
  GI50: 29.9 nM
  CC50: 12000 nM
  IC (TGI): 123 nM
LoVo
  GI50: 3.85 nM
  CC50: 12000 nM
  IC (TGI): 14.4 nM
HeLa-APL
  GI50: 13.3 nM
  CC50: 459 nM
  IC (TGI): 143 nM
SK-MEL-28
  GI50: 15.5 nM
  CC50: 83.9 nM
  IC (TGI): 36.1 nM
SK-BR-3
  GI50: 12.7 nM
  CC50: 12000 nM
  IC (TGI): 154 nM
K-562
  GI50: 1.88 nM
  CC50: 2700 nM
  IC (TGI): 5.18 nM
IGROV-1
  GI50: 6.56 nM
  CC50: 3370 nM
  IC (TGI): 39.4 nM
HeLa
  GI50: 21.9 nM
  CC50: 376 nM
  IC (TGI): 64.1 nM
LNCaP
  GI50: 7.42 nM
  CC50: 109 nM
  IC (TGI): 29.3 nM
IGROV-ET
  GI50: 37 nM
  CC50: 12000 nM
  IC (TGI): 120 nM
PANC-1
  GI50: 23 nM
  CC50: 5310 nM
  IC (TGI): 64.8 nM
DU-145
  GI50: 3.76 nM
  CC50: 12000 nM
  IC (TGI): 22 nM
LoVo-Dox
  GI50: 338 nM
  CC50: 12000 nM
  IC (TGI): 12000 nM

## C=CCN1[C@@H]2c3c(cc(C)c(OC)c3O)C[C@H]1[C@H](C#N)N1C2[C@@H]2SC[C@]3(NCCc4c3[nH]c3ccc(OC)cc43)C(=O)OC[C@H]1c1c3c(c(C)c(OC(C)=O)c12)OCO3 (stereo partly drawn) [compound 56]
A-549
  GI50: 30.2 nM
  CC50: 705 nM
  IC (TGI): 68.7 nM
HT-29
  GI50: 48.8 nM
  CC50: 12000 nM
  IC (TGI): 571 nM
LoVo
  GI50: 23 nM
  CC50: 101 nM
  IC (TGI): 48.2 nM
HeLa-APL
  GI50: 25.9 nM
  CC50: 204 nM
  IC (TGI): 58.3 nM
SK-MEL-28
  GI50: 26.3 nM
  CC50: 91.4 nM
  IC (TGI): 49 nM
SK-BR-3
  GI50: 5.71 nM
  CC50: 422 nM
  IC (TGI): 18.6 nM
K-562
  GI50: 6.89 nM
  CC50: 12000 nM
  IC (TGI): 86.8 nM
IGROV-1
  GI50: 34.2 nM
  CC50: 1060 nM
  IC (TGI): 69.3 nM
HeLa
  GI50: 27.1 nM
  CC50: 104 nM
  IC (TGI): 53.1 nM
LNCaP
  GI50: 12.2 nM
  CC50: 67.7 nM
  IC (TGI): 28.8 nM
IGROV-ET
  GI50: 40.2 nM
  CC50: 12000 nM
  IC (TGI): 79.7 nM
PANC-1
  GI50: 90.2 nM
  CC50: 12000 nM
  IC (TGI): 953 nM
DU-145
  GI50: 41 nM
  CC50: 12000 nM
  IC (TGI): 101 nM
LoVo-Dox
  GI50: 333 nM
  CC50: 12000 nM
  IC (TGI): 1330 nM
